Reference: publication PMC12655637, “Design, Synthesis, and Mechanistic Study of Novel Ciprofloxacin/Thiazole Chalcone Hybrids as Potential Anticancer Agents” (Pharmaceuticals, 2025)
Like-named read-outs stand apart in the source and are kept apart here.

Tests used:
MOLT-4 = experiment: NCI-60 screening, one-dose (10 µM) and five-dose, SRB; type: cell-based, human; conditions: Homo sapiens; 10 μM; MOLT-4, Leukemia; read-out: Growth percentage
RPMI-8226 = experiment: as above; type: cell-based, human; conditions: Homo sapiens, RPMI-8226, 10 μM; RPMI-8226, Leukemia; read-out: Growth percentage
SR = experiment: as above; type: cell-based, human; conditions: 10 μM, Leukemia
EKVX = experiment: as above; type: cell-based, human; conditions: Homo sapiens, 10 μM, Non-Small-Cell Lung Cancer, read-out: Growth percentage
HOP-92 = experiment: as above; type: cell-based, human; conditions: Homo sapiens; 10 μM; HOP-92, Non-Small-Cell Lung Cancer; read-out: Growth percentage
NCI-H23 = experiment: as above; type: cell-based, human; conditions: Homo sapiens; 10 μM; NCI-H23, Non-Small-Cell Lung Cancer; read-out: Growth percentage
HCC-2998 = experiment: as above; type: cell-based, human; conditions: Homo sapiens; 10 μM; HCC-2998, Colon Cancer; read-out: Growth percentage
HCT-116 = experiment: as above; type: cell-based, human; conditions: Homo sapiens, HCT-116, 10 μM; HCT-116, Colon Cancer; read-out: Growth percentage
HT29 = experiment: as above; type: cell-based, human; conditions: Homo sapiens, HT-29; 10 μM; HT29, Colon Cancer; read-out: Growth percentage
KM12 = experiment: as above; type: cell-based, human; conditions: Homo sapiens, KM12, 10 μM; KM12, Colon Cancer; read-out: Growth percentage
SW-620 = experiment: as above; type: cell-based, human; conditions: Homo sapiens; 10 μM; SW-620, Colon Cancer; read-out: Growth percentage
SF-295 = experiment: as above; type: cell-based, human; conditions: Homo sapiens; 10 μM; SF-295, CNS Cancer; read-out: Growth percentage
SNB-75 = experiment: as above; type: cell-based, human; conditions: Homo sapiens; 10 μM; SNB-75, CNS Cancer; read-out: Growth percentage
M14 = experiment: as above; type: cell-based, human; conditions: Homo sapiens; 10 μM; M14, Melanoma; read-out: Growth percentage
MDA-MB-435 = experiment: as above; type: cell-based; conditions: Homo sapiens, MDA-MB-435, read-out: Growth percentage, 10 μM; MDA-MB-435, Melanoma
SK-MEL-5 = experiment: as above; type: cell-based, human; conditions: Homo sapiens; 10 μM; SK-MEL-5, Melanoma; read-out: Growth percentage
UACC-257 = experiment: as above; type: cell-based, human; conditions: Homo sapiens; 10 μM; UACC-257, Melanoma; read-out: Growth percentage
UACC-62 = experiment: as above; type: cell-based; conditions: Homo sapiens
OVCAR-3 = experiment: as above; type: cell-based; conditions: Homo sapiens; 10 μM; OVCAR-3, Ovarian Cancer; read-out: Growth percentage
OVCAR-4 = experiment: as above; type: cell-based, human; conditions: Homo sapiens; 10 μM; OVCAR-4, Ovarian Cancer; read-out: Growth percentage
OVCAR-5 = experiment: as above; type: cell-based, human; conditions: 10 μM; OVCAR-5, Ovarian Cancer
SK-OV-3 = experiment: as above; type: cell-based, human; conditions: Homo sapiens; 10 μM; SK-OV-3, Ovarian Cancer; read-out: Growth percentage
786−0 = experiment: as above; type: cell-based, human; conditions: Homo sapiens; 10 μM; 786−0, Renal Cancer; read-out: Growth percentage
A498 = experiment: as above; type: cell-based; conditions: Homo sapiens
ACHN = experiment: as above; type: cell-based, human; conditions: Homo sapiens, 10 μM, Renal Cancer, read-out: Growth percentage
RXF 393 = experiment: as above; type: cell-based; conditions: Homo sapiens
TK-10 = experiment: as above; type: cell-based, human; conditions: Homo sapiens; 10 μM; TK-10, Renal Cancer; read-out: Growth percentage
DU-145 = experiment: as above; type: cell-based, human; conditions: Homo sapiens; 10 μM; DU-145, Prostate Cancer; read-out: Growth percentage
BT-549 = experiment: as above; type: cell-based; conditions: Homo sapiens
T-47D = experiment: as above; type: cell-based, human; conditions: 10 μM, Breast Cancer
[1] = test system: 60 human cancer cell lines; experiment: NCI-60 screening, full panel (mean growth, MID a, ranges over all lines); conditions: Homo sapiens, read-out: Mean growth percentage
[2] = 10 μM, UACC-62, Melanoma, read-out: Growth percentage
[3] = 10 μM, RXF 393, Renal Cancer, read-out: Growth percentage
[4] = 10 μM, BT-549, Breast Cancer, read-out: Growth percentage
[5] = A498, 10 μM, A498, Renal Cancer, read-out: Growth percentage

SMILES	activity at 10 µM (MOLT-4) [%]	activity at 10 µM (RPMI-8226) [%]	Growth percentage (SR) [%]	activity at 10 µM (EKVX) [%]	activity at 10 µM (HOP-92) [%]	activity at 10 µM (NCI-H23) [%]	activity at 10 µM (HCC-2998) [%]	activity at 10 µM (HCT-116) [%]	activity at 10 µM (HT29) [%]	activity at 10 µM (KM12) [%]	activity at 10 µM (SW-620) [%]	activity at 10 µM (SF-295) [%]	activity at 10 µM (SNB-75) [%]	activity at 10 µM (M14) [%]	activity at 10 µM (MDA-MB-435) [%]	activity at 10 µM (SK-MEL-5) [%]	activity at 10 µM (UACC-257) [%]	activity at 10 µM (OVCAR-3) [%]	activity at 10 µM (OVCAR-4) [%]	Growth percentage (OVCAR-5) [%]	other results
Cc1nc(SCC(=O)N2CCN(c3cc4c(cc3F)c(=O)c(C(=O)O)cn4C3CC3)CC2)sc1C(=O)/C=C/c1ccc(F)cc1 [Compound 4e, (E)-1-Cyclopropyl-6-fluoro-7-(4-(2-((5-(3-(4-fluorophenyl)acryloyl)-4-methylthiazol-2-yl)thio)acetyl)piperazin-1-yl)-4-oxo-1,4-dihydroquinoline-3-carboxylic Acid]	105	29.1	55.6	108	98	101	107	51.2	115	97.3	126	98.8	103	97.8	104	99.9	106	116	102	119.2	activity at 10 µM (UACC-62; [2]): 99.6%; activity at 10 µM (SK-OV-3): 114%; activity at 10 µM (786−0): 88.3%; activity at 10 µM (A498; A498, read-out: Growth percentage): 106%; activity at 10 µM (ACHN): 98.9%; activity at 10 µM (RXF 393; [3]): 95.9%; activity at 10 µM (TK-10): 103%; activity at 10 µM (DU-145): 105%; activity at 10 µM (BT-549; [4]): 102%; Growth percentage (T-47D): 95.6%; activity at 10 µM [1]: 100%
Cc1nc(SCC(=O)N2CCN(c3cc4c(cc3F)c(=O)c(C(=O)O)cn4C3CC3)CC2)sc1C(=O)/C=C/c1ccc(Br)cc1 [Compound 4f, (E)-7-(4-(2-((5-(3-(4-Bromophenyl)acryloyl)-4-methylthiazol-2-yl)thio)acetyl)piperazin-1-yl)-1-cyclopropyl-6-fluoro-4-oxo-1,4-dihydroquinoline-3-carboxylic Acid]	96.2	31.5	56.5	107	115	102	115	94.3	117	108	116	108	65.7	108	107	101	118	170	102	110.6	activity at 10 µM (UACC-62; [2]): 105%; activity at 10 µM (SK-OV-3): 110%; activity at 10 µM (786−0): 93.6%; activity at 10 µM (A498; [5]): 114%; activity at 10 µM (ACHN): 107%; activity at 10 µM (RXF 393; RXF 393, read-out: Growth percentage): 107%; activity at 10 µM (TK-10): 108%; activity at 10 µM (DU-145): 113%; activity at 10 µM (BT-549; BT-549, read-out: Growth percentage): 107%; Growth percentage (T-47D): 89.3%; activity at 10 µM [1]: 102%
Cc1nc(SCC(=O)N2CCN(c3cc4c(cc3F)c(=O)c(C(=O)O)cn4C3CC3)CC2)sc1C(=O)/C=C/c1cccc([N+](=O)[O-])c1 [Compound 4g, (E)-1-Cyclopropyl-6-fluoro-7-(4-(2-((4-methyl-5-(3-(3-nitrophenyl)acryloyl)thiazol-2-yl)thio)acetyl)piperazin-1-yl)-4-oxo-1,4-dihydroquinoline-3-carboxylic Acid]	86.4	9.9	11.6	111	68.4	87.8	50.3	-73.5	37.2	21.7	69.8	110	95.7	83.3	71.9	81.7	99.8	163	103	119.9	activity at 10 µM (UACC-62; UACC-62, read-out: Growth percentage): 71.9%; activity at 10 µM (SK-OV-3): 121%; activity at 10 µM (786−0): 71.2%; activity at 10 µM (A498; [5]): 129%; activity at 10 µM (ACHN): 110%; activity at 10 µM (RXF 393; [3]): 92.9%; activity at 10 µM (TK-10): 109%; activity at 10 µM (DU-145): 108%; activity at 10 µM (BT-549; [4]): 66.9%; Growth percentage (T-47D): 84.1%; activity at 10 µM [1]: 80%
Cc1nc(SCC(=O)N2CCN(c3cc4c(cc3F)c(=O)c(C(=O)O)cn4C3CC3)CC2)sc1C(=O)/C=C/c1ccc([N+](=O)[O-])cc1 [Compound 4h, (E)-1-Cyclopropyl-6-fluoro-7-(4-(2-((4-methyl-5-(3-(4-nitrophenyl)acryloyl)thiazol-2-yl)thio)acetyl)piperazin-1-yl)-4-oxo-1,4-dihydroquinoline-3-carboxylic Acid]	62.7	16.3	23.8	113	126	73.2	71.9	33.8	76.1	54.4	78.2	116	91.2	70.5	88.4	83.5	82.6	49.4	89.2	121.1	activity at 10 µM (UACC-62; [2]): 59%; activity at 10 µM (SK-OV-3): 119%; activity at 10 µM (786−0): 87.6%; activity at 10 µM (A498; [5]): 125%; activity at 10 µM (ACHN): 96.7%; activity at 10 µM (RXF 393; [3]): 89.5%; activity at 10 µM (TK-10): 116%; activity at 10 µM (DU-145): 85.3%; activity at 10 µM (BT-549; [4]): 83.9%; Growth percentage (T-47D): 64.1%; activity at 10 µM [1]: 77.6%
